# Experimental data taken from US20230382919A1, “OXA- IBOGAINE INSPIRED ANALOGUES FOR TREATMENT OF NEUROLOGICAL AND PSYCHIATRIC DISORDERS” (The Trustees of Columbia University in the City of New York, priority 2021, published 2023).
# System: C57BL/6J mice
# Assay: Tail-flick test
# Format: in vivo
# Details: Mus musculus, sc, 10-30 mg/kg dose range
# Experimental: C57BL/6J (8-12 weeks, 22-31 g) were purchased from the Jackson Laboratory (Bar Harbor, ME) and housed 5 mice per cage with food and water available ad libitum. Mice were maintained on a 12-hr light/dark cycle (lights on 7:00-19:00) and all testing was done in the light cycle. Temperature was kept constant at 22±2° C., and relative humidity was maintained at 50±5%. Mice were moved to the testing room 30 minutes before the experiment to allow for acclimation. The body weight of each mouse and base tail-flick value were recorded. Mice were administered a 1 mg/kg s.c. dose of compound solution (volume of injection 220-310 μL based on body weight). After injection mice were returned to the home cage and allowed to rest for 30 minutes. Thirty minutes post injection the tail-flick measurement was taken using thermal stimulation via IR on a Ugo Basile unit set to 52 PSU (ten seconds was used as a maximum latency to prevent tissue damage). Mice were then administered 3 mg/kg s.c. dose, allowed to rest for 30 minutes, followed by another tail-flick measurement. […] Tail-flick latencies for the different doses were expressed as percentage of maximum potential effect (% MPE) by subtracting the experimental value by the base tail flick value then dividing by the difference between the maximum possible latency (10 seconds) and the base tail-flick value and finally multiplying by 100. […]
smiles,measurement,value
"c1ccc2c3c([nH]c2c1)C1CCCN(CC3)C1 (stereo not shown) [Compound 61, 1,4,5,6,7,8-hexahydro-2H-3,7-methanoazonino[5,4-b]indole]",ED50,16.5 mg/kg
